Assay results as given in PubChem BioAssay (NCI).
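Five compound concentrations were applied to cells in 96-well plates for 48 hours; endpoints were derived by simple linear interpolation of the resulting dose-response curve. TGI is the concentration that stops growth completely.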

Columns and labels:
Assay in all cases: NCI tumour cell line growth inhibition, 48 h
M14 melanoma = test system: M14 melanoma
CAKI-1 renal = test system: CAKI-1 renal
NCI-H226 lung = test system: NCI-H226 lung
NCI-H460 lung = test system: NCI-H460 lung
HS 578T breast = test system: HS 578T breast
IGROV1 ovarian = test system: IGROV1 ovarian
K-562 leukemia = test system: K-562 leukemia
A549 NSCLC = test system: A549 NSCLC
SNB-75 CNS = test system: SNB-75 CNS
PC-3 prostate = test system: PC-3 prostate
TK-10 renal = test system: TK-10 renal
HCT-15 colon = test system: HCT-15 colon
SK-MEL-5 melanoma = test system: SK-MEL-5 melanoma
HOP-92 NSCLC = test system: HOP-92 NSCLC
HT29 colon = test system: HT29 colon
ACHN renal = test system: ACHN renal
SW-620 colon = test system: SW-620 colon
NCI/ADR-RES ovarian = test system: NCI/ADR-RES ovarian
MDA-MB-435 = test system: MDA-MB-435
COLO 205 colon = test system: COLO 205 colon

Row | Structure (SMILES) | TGI (M14 melanoma) [µM] | TGI (CAKI-1 renal) [µM] | TGI (NCI-H226 lung) [µM] | TGI (NCI-H460 lung) [µM] | TGI (HS 578T breast) [µM] | TGI (IGROV1 ovarian) [µM] | TGI (K-562 leukemia) [µM] | TGI (A549 NSCLC) [µM] | TGI (SNB-75 CNS) [µM] | TGI (PC-3 prostate) [µM] | TGI (TK-10 renal) [µM] | TGI (HCT-15 colon) [µM] | TGI (SK-MEL-5 melanoma) [µM] | TGI (HOP-92 NSCLC) [µM] | TGI (HT29 colon) [µM] | TGI (ACHN renal) [µM] | TGI (SW-620 colon) [µM] | TGI (NCI/ADR-RES ovarian) [µM] | TGI (MDA-MB-435) [µM] | TGI (COLO 205 colon) [µM]
1 | CCOc1cc(C2SCC(=O)N2c2ccc3c(c2)Oc2c(Cl)c4c(c(Cl)c2=N3)Oc2cc(N3C(=O)CSC3c3ccc(O)c(OCC)c3)ccc2N=4)ccc1O (stereo not drawn) | 63.8 | > 100 | 66.2 | > 100 | > 100 | > 100 | > 100 | 83.4 | 50.5 | > 100 | > 100 | > 100 | > 100 | 59.1 | > 100 | 73.4 | > 100 | > 100 | > 100 | 
2 | CCOC(=O)[C@@]1(C(C)=O)CC(C)=C(C)C[S@]1=O | > 100 | > 100 | > 100 | > 100 | > 100 | > 100 | > 100 | > 100 | > 100 | > 100 | > 100 | > 100 |  | > 100 |  | > 100 | > 100 | > 100 | > 100 | > 100
3 | Cc1nc(C)c(N2CCN(S(N)(=O)=O)CC2)c(=O)[nH]1 | > 100 | > 100 | > 100 | > 100 | > 100 | > 100 | > 100 | > 100 |  | > 100 | > 100 | > 100 | > 100 | > 100 | > 100 | > 100 | > 100 | > 100 | > 100 | > 100
4 | CC(C)=NOC(=O)OC[C@H]1O[C@@H](n2cnc3c(N)ncnc32)C(O)C1O (stereo partly drawn) | > 100 |  | > 100 | > 100 | > 100 | > 100 | > 100 | > 100 | > 100 | > 100 | > 100 | > 100 | > 100 |  | > 100 | > 100 | > 100 | > 100 | > 100 | > 100
5 | Cc1cc(C#N)c(Nc2ccc(F)cc2[N+](=O)[O-])s1 | > 100 | > 100 | > 100 | > 100 |  |  | > 100 | > 100 | > 100 | > 100 |  | > 100 |  | 94.6 |  | > 100 | > 100 | > 100 | > 100 | > 100
6 | CN(CCNC(=O)c1nn(-c2ccc(Cl)cc2Cl)c2c1Cc1ccccc1-2)CCNC(=O)c1nn(-c2ccc(Cl)cc2Cl)c2c1Cc1ccccc1-2 | 3.46 | > 47.4 |  | 4.01 | 32.5 | > 100 | > 26.3 | 28.8 | > 48.2 | > 100 | 24.6 | 5.97 | 3.48 | 4.88 | 5.55 | 29.7 | 4.88 | 14.9 | 2.43 | 3.43
7 | Cc1cn(C2CC(N=[N+]=[N-])C(CO)O2)c(=O)n(CCCCBr)c1=O (stereo not drawn) | > 100 | > 100 | > 100 | > 100 | > 100 | > 100 | > 100 | > 100 | > 100 | > 100 | > 100 | > 100 |  | > 100 | > 100 | > 100 | > 100 | > 100 | > 100 | > 100
8 | CC1=C[C@H]([C@H]2C=C(C)C(C(N)=O)=CN2Cc2c(Cl)cccc2Cl)N(Cc2c(Cl)cccc2Cl)C=C1C(N)=O | > 75 | > 75 | > 75 | > 75 | > 75 |  | > 75 | > 75 |  | > 75 | > 75 | > 75 | > 75 | 65.8 | > 75 | > 75 | > 75 | > 75 | > 75 | > 75
9 | COC(=O)[C@@H]1C[C@]2(Br)c3ccccc3N(S(=O)(=O)c3ccccc3)[C@@H]2N1C(=O)OC |  | > 100 | > 100 | > 100 | > 100 | > 100 | > 100 | > 100 | > 100 | > 100 | > 100 | > 100 | > 100 | > 100 | > 100 | > 100 | > 100 | > 100 | > 100 | 
10 | Cc1nn(C(=O)Cc2ccccc2)c2c1C(c1ccc([N+](=O)[O-])cc1)SC(N)=N2 (stereo not drawn) | > 100 | > 100 |  | > 100 | > 100 | > 100 | > 100 | > 100 |  | > 100 | > 100 | > 100 | > 100 |  | > 100 | > 100 | > 100 |  | > 100 | > 100
11 | CNC(=O)N1CN(c2ccccc2)C2(CCN(Cc3ccccc3)CC2)C1=O | > 100 | > 100 | > 100 |  |  | > 100 | > 100 | > 100 | > 100 | > 100 | > 100 | > 100 | > 100 |  | > 100 | > 100 | > 100 | 51.3 |  | > 100
12 | Cc1ccc2nc(CN(CCO)CCO)cc(=O)n2c1 | > 100 | > 100 | > 100 | > 100 | > 100 | > 100 | > 100 | > 100 | > 100 | > 100 | > 100 | > 100 |  | > 100 | > 100 | > 100 | > 100 | > 100 | > 100 | > 100
13 | COc1ccccc1/C=N/Nc1nnc2c3ccccc3c3ncccc3c2n1 | > 100 | > 100 |  | > 100 | > 100 | > 100 | > 100 | > 100 | 49.3 | > 100 | > 100 | > 100 | > 100 | 52.8 | > 100 | > 100 | > 100 | > 100 | > 100 | > 100
14 | OCC(O)COCn1cc(Cn2ncc3c(NCc4ccccc4)ncnc32)nn1 (stereo not drawn) | > 100 | > 100 | > 100 |  | 47.9 | > 100 |  | > 100 |  | > 100 | > 100 | > 100 | > 100 | > 100 | > 100 | > 100 | > 100 | > 100 | > 100 | > 100
15 | O=C(c1ccccc1)N(CCCCNC(=O)C(F)(F)F)CCCNC(=O)C(F)(F)F | > 100 | > 100 | > 100 | > 100 | > 100 | > 100 | > 100 | > 100 | > 100 |  | > 100 | > 100 | > 100 | > 100 | > 100 | > 100 | > 100 | > 100 | > 100 | > 100
16 | CCOC(=O)C(NC(=O)c1cccc(Cl)c1)(Nc1ccc(S(=O)(=O)Nc2cc(C)nc(C)n2)cc1)C(F)(F)F (stereo not drawn) | > 100 | > 100 | > 100 | > 100 | > 100 | > 100 |  | > 100 | > 100 | > 100 | > 100 | > 100 | > 100 | > 100 | > 100 | > 100 | > 100 | > 100 | > 100 | > 100
17 | CCOP(=O)(Nc1ccc(-c2ccc(N)cc2)cc1)OCC | > 100 | > 100 |  | > 100 | > 100 | > 100 | > 100 | > 100 | > 100 | > 100 | > 100 | > 100 | > 100 | > 100 | > 100 | > 100 |  | > 100 | > 100 | > 100
18 | [N-]=[N+]=Nc1c(-c2ccccc2)c(=O)n(-c2ccccc2)c2ccccc12 | > 100 |  | > 100 | > 100 | > 100 | > 100 | > 100 | > 100 | > 100 | > 100 | > 100 | > 100 |  | > 100 | > 100 | > 100 | > 100 | > 100 | > 100 | > 100
19 | COc1cc(NC(C)=O)ccc1C(=O)N/N=C/c1ccco1 | > 100 | > 100 |  |  | > 100 | > 100 | > 100 | > 100 | > 100 | > 100 |  | > 100 | > 100 | > 100 | > 100 | > 100 | > 100 | > 100 | > 100 | > 100
20 | O=C1c2cn[nH]c2N=C(Nc2ccccc2)C1N=Cc1ccc([N+](=O)[O-])cc1 (stereo not drawn) | > 10 |  | > 10 | > 10 | > 10 |  | > 10 | > 10 | > 10 | > 10 | > 10 |  | > 10 |  | > 10 | > 10 |  |  | > 10 | 
21 | CN(C)/C=C/c1c2c(nc3ccccc13)C(=O)c1cccnc1C2=O | 0.597 | > 38.7 |  | 0.532 | 4.65 | 4.16 | 3.75 | 2.59 | 4.66 | 11.1 | 4.03 | 1.07 | 0.346 | 11.5 | 5.15 | 2.28 | 1.48 | 1.9 | 1.56 | 5.55
22 | CC(ON1[C@](C)(c2ccccc2)CC[C@@]1(C)c1ccccc1)c1ccccc1 (stereo partly drawn) | > 100 | > 100 | > 100 | > 100 | > 100 | > 100 | > 100 | > 100 | 54.6 | > 100 | > 100 | > 100 | > 100 | > 100 | > 100 |  | > 100 | > 100 | > 100 | > 100
23 | O=C(Nc1ccccc1)c1cc(S(=O)(=O)N2CCNC2=O)c(S)cc1Cl | > 100 | > 100 |  | > 100 | > 100 | > 100 | > 100 | > 100 | > 100 | > 100 | > 100 | > 100 | > 100 | > 100 | > 100 | > 100 | > 100 | > 100 | > 100 | > 100
24 | C1=CCC[C@@H]2CN3CCCC/C=C\CCCC[C@H]4C[C@H](CN(CCCCCCCC1)C4)[C@H]2CC3 | 18.7 | 18.2 | > 50 | 18.7 | 20.2 | 18 | 24 | 17.8 | 16.5 | 41.2 | 15.8 | 18.3 | 16.3 |  | 20.8 | 17 | 16.4 |  | 15.7 | 16
25 | C=CCc1cccc2cc(C(=O)Nc3ccc(C)cc3)c(=N)oc12 | > 100 | > 100 | > 100 | > 100 | > 100 | > 100 | > 100 | > 100 | > 100 | > 100 |  | > 100 | > 100 | > 100 | > 100 | > 100 | > 100 | > 100 | > 100 | > 100
